According to ChEMBL document CHEMBL5465560, “Selectivity Literature for EUbOPEN Chemogenomic Library” (2024):
One block for each compound: values may come before it.

Legend:
[1] = target: T1, Cytoplasmic tyrosine-protein kinase BMX (Homo sapiens) (UniProt P51813); experiment: Selectivity interaction (Ambit KINOMEscan and KiNATiv profiling in Jurkat cells) EUB0000090b BMX; format: cell-based; conditions: at 1 µM
T1 sequence (whole entry): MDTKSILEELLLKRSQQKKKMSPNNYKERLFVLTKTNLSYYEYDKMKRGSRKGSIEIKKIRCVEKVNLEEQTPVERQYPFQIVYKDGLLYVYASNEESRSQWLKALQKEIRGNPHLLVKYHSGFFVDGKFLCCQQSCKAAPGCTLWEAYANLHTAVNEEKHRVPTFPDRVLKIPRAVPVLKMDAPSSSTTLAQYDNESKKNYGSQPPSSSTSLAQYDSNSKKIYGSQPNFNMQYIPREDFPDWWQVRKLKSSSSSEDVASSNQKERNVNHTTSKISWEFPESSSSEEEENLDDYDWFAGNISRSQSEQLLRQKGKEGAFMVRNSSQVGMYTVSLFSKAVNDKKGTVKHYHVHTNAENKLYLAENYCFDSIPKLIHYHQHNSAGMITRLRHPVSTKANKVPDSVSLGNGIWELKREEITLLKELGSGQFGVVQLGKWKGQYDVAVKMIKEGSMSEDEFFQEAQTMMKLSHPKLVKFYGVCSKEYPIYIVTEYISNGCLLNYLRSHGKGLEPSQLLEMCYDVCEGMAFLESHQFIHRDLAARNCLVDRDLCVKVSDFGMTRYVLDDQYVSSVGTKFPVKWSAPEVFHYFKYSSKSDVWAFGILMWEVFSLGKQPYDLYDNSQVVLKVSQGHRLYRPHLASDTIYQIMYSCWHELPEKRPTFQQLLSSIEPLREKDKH

[2] = target: T2, Mitogen-activated protein kinase kinase kinase kinase 2 (Homo sapiens) (UniProt Q12851); experiment: Selectivity interaction (Kinase panel (KiNativ target engagement assay in Jurkat cells)) EUB0001635a MAP4K2; format: cell-based; conditions: Selectivity number of off-targets 0.0, Selectivity number of targets 233.0, Source Knowledge https://www.sciencedirect.com/science/article/pii/S2451945619300674?via%3Dihub, at 1 µM
T2 sequence (whole entry): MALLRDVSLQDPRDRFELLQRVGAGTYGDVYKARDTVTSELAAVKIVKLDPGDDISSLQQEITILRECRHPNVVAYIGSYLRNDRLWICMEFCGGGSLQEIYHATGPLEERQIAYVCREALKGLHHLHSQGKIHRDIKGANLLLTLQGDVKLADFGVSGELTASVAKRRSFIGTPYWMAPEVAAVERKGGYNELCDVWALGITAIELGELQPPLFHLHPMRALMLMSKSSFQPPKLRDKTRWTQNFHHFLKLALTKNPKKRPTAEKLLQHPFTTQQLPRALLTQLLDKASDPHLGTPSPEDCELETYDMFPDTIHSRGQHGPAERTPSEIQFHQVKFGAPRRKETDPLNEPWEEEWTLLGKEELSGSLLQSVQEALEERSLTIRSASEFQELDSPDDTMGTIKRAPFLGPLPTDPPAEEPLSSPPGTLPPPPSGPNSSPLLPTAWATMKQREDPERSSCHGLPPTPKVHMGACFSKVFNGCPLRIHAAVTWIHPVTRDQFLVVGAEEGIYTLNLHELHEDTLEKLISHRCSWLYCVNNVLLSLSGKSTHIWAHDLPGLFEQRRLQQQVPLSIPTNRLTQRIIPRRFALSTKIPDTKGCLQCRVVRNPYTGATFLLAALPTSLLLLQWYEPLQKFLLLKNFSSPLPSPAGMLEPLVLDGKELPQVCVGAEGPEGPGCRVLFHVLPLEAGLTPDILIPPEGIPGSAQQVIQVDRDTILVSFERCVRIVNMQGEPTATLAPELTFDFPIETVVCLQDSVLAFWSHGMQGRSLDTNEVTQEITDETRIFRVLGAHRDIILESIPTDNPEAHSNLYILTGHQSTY

[3] = target: Serine/threonine-protein kinase 38-like (Homo sapiens) (UniProt Q9Y2H1); experiment: Selectivity interaction (Kinase panel (KiNativ target engagement assay in Jurkat cells)) EUB0001635a STK38L; format: cell-based; conditions: Selectivity number of off-targets 0.0, Selectivity number of targets 233.0, Source Knowledge https://www.sciencedirect.com/science/article/pii/S2451945619300674?via%3Dihub, at 1 µM
Sequence of Serine/threonine-protein kinase 38-like (Homo sapiens) (Q9Y2H1 2-464 limits assumed): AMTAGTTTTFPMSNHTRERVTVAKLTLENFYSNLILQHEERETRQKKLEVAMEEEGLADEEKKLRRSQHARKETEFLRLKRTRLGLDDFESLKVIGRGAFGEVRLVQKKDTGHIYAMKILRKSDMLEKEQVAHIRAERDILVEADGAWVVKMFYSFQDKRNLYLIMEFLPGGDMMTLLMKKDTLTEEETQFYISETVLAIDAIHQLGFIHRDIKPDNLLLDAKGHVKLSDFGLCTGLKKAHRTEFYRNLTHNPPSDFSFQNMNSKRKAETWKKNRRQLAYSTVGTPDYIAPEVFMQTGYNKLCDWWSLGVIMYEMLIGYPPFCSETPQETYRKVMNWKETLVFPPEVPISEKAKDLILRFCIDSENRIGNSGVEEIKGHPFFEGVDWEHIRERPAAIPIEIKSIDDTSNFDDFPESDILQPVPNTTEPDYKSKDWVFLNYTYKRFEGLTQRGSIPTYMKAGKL

[4] = target: 5'-AMP-activated protein kinase catalytic subunit alpha-1 (Homo sapiens, UniProt Q13131); experiment: Selectivity interaction (ActivX KiNativ screen (kinase selectivity in THP-1 cell lysates)) EUB0000639a PRKAA1; format: subcellular; conditions: lysate, at 0.04 µM
Sequence of 5'-AMP-activated protein kinase catalytic subunit alpha-1 (Q13131 whole entry, looked up): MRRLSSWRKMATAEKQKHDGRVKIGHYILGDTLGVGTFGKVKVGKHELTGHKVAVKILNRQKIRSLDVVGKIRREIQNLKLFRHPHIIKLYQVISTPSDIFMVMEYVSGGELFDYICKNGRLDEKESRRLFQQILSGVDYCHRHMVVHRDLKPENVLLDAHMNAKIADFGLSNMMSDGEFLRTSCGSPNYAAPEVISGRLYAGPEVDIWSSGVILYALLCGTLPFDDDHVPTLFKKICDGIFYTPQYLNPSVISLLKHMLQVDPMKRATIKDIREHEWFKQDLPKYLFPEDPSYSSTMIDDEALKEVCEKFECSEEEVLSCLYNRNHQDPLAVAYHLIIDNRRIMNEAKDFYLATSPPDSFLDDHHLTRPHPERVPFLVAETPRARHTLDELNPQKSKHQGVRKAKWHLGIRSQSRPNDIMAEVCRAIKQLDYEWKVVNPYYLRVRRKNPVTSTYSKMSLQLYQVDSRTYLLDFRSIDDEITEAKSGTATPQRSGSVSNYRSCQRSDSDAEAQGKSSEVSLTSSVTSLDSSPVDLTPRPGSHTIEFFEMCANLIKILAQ

[5] = target: T3, Serine/threonine-protein kinase D3 (Homo sapiens) (UniProt O94806); experiment: Selectivity interaction (KinomeScan (DiscoverX)) EUB0000695a PRKD3; conditions: at 100 nM
T3 sequence (whole entry): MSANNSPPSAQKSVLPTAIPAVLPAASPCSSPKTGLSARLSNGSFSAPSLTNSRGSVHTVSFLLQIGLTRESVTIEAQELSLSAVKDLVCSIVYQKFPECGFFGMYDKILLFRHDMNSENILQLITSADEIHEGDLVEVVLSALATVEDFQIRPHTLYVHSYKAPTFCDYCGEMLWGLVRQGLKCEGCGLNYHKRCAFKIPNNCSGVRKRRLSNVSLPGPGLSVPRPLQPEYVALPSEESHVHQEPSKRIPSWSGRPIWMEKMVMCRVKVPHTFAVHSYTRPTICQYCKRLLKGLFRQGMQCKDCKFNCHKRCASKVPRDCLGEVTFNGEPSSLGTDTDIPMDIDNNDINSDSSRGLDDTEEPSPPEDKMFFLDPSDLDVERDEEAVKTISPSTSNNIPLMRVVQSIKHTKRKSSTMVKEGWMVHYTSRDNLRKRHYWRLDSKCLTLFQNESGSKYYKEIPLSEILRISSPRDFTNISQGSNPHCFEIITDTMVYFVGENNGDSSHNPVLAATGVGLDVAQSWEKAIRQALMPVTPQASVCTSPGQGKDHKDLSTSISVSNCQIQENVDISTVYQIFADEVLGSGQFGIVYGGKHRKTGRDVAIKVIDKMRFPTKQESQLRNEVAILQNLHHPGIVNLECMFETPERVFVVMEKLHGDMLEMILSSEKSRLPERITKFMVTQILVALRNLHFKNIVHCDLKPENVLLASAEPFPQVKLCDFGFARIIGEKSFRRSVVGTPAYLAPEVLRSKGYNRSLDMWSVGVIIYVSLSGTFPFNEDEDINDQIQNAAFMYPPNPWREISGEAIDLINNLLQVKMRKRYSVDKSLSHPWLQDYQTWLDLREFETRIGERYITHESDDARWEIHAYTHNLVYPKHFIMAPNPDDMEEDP

SMILES: CN(C)C/C=C/C(=O)Nc1ccc(C(=O)N2CCCC(Nc3ncc(Cl)c(-c4c[nH]c5ccccc45)n3)C2)cc1 (stereo not given)
% of control [1]: 95%

SMILES: C=CC(=O)Nc1ccc(C(=O)Nc2[nH]nc3c2CN(C(=O)N[C@H](CN(C)C)c2ccccc2)C3(C)C)cc1
% of engagement [2]: -14.9%
% of engagement [3]: -0.3%

% of inhibition [4]: -11.5%
SMILES: CC[C@@H]1[C@H](F)C(=O)N[C@@H]1COc1nccc2cc(C(N)=O)c(OC)cc12 [ZIMLOVISERTIB]

SMILES: Cc1cc(F)c(C(=O)Nc2cccc(-c3nncn3C(C)C)n2)cc1-n1cnc(C2CC2)c1
% of control [5]: 78%
